The molecules below were run against T1, human TLR7 (Homo sapiens, UniProt Q9NYK1) (assay: HEK293-Blue-hTLR-7 cells assay). Conditions: HEK293-Blue-hTLR7 cells, R848 stimulation, 20 hrs, SEAP reporter; read-out: HEK/hTLR7 IC50.
T1 sequence (Q9NYK1 27-1049): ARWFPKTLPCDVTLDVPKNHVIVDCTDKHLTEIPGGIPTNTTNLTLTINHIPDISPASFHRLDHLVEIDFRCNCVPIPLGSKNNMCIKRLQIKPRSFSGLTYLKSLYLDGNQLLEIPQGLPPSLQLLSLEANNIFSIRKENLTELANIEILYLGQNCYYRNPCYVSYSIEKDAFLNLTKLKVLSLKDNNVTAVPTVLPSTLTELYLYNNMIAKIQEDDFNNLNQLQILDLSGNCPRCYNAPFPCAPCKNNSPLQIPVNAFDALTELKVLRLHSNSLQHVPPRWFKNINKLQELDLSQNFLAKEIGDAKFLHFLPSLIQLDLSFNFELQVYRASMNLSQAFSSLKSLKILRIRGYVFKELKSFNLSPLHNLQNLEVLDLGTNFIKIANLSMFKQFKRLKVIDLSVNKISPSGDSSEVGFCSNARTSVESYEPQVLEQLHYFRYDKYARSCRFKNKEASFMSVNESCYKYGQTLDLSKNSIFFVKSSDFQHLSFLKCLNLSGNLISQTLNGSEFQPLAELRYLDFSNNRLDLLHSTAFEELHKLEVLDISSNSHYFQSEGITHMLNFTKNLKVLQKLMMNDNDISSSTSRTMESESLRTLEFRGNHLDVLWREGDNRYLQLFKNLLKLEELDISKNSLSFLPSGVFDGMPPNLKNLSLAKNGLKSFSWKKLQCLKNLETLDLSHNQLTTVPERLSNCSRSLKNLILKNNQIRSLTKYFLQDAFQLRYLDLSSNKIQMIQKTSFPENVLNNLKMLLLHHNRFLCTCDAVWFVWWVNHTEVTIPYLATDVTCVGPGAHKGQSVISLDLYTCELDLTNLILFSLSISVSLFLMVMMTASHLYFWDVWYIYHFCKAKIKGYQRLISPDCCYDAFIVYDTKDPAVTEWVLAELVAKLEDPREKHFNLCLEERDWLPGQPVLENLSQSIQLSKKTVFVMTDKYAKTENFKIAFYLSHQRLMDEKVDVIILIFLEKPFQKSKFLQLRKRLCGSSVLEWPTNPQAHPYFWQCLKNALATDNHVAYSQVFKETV
Assay type: cell-based
Source text: HEK293-Blue-hTLR-7 cells assay:
A stable HEK293-Blue-hTLR-7 cell line was purchased from InvivoGen (Cat. #: hkb-htlr7, San Diego, California, USA). These cells were originally designed for studying the stimulation of human TLR7 by monitoring the activation of NF-κB. A SEAP (secreted embryonic alkaline phosphatase) reporter gene was placed under the control of the IFN-β minimal promoter fused to five NF-κB and AP-1-binding sites. The SEAP was induced by activating NF-κB and AP-1 via stimulating HEK-Blue hTLR7 cells with TLR7 ligands. Therefore the reporter expression was declined by TLR7 antagonist under the stimulation of a ligand, such as R848 (Resiquimod), for incubation of 20 hrs. The cell culture supernatant SEAP reporter activity was determined using QUANTI-Blue™ kit (Cat. #: rep-qb1, Invivogen, San Diego, Ca, USA) at a wavelength of 640 nm, a detection medium that turns purple or blue in the presence of alkaline phosphatase.
HEK293-Blue-hTLR7 cells were incubated at a density of 250,000˜450,000 cells/mL in a volume of 170 μL in a 96-well plate in Dulbecco's Modified Eagle's medium (DMEM) containing 4.5 g/L glucose, 50 U/mL penicillin, […], […], 2 mM L-glutamine, 10% (v/v) heat-inactivated fetal bovine serum with addition of 20 μL test compound in a serial dilution in the presence of final DMSO at 1% and 10 μL of 20 uM R848 in above DMEM, perform incubation under 37° C. in a CO2 incubator for 20 hrs. Then 20 μL of the supernatant from each well was incubated with 180 μL Quanti-blue substrate solution at 37° C. for 2 hrs and the absorbance was read at 620˜655 nm using a spectrophotometer. The signaling pathway that TLR7 activation leads to downstream NF-κB activation has been widely accepted, and therefore similar reporter assay was modified for evaluating TLR7 antagonist.

Row | IC50 [nM] | Structure (SMILES)
1 | 13 | C[C@@H]1CN(c2ccc(C#N)n3ncc(F)c23)C[C@H](CN2CC3(C2)OCc2cc(N4CC(C)(N)C4)cnc23)O1 [Example 33, 4-[(2S,6R)-2-[[3-(3-amino-3-methyl-azetidin-1-yl)spiro[5H-furo[3,4-b]pyridine-7,3′-azetidine]-1′-yl]methyl]-6-methyl-morpholin-4-yl]-3-fluoro-pyrazolo[1,5-a]pyridine-7-carbonitrile]
2 | 7 | [2H]c1ccc2c(N3C[C@H](CN4CC5(C4)OCc4cc(N6C[C@H]7NCCO[C@@H]7C6)ncc45)O[C@H](C)C3)ccc(C#N)c2n1 [Example 28, 5-[(2S,6R)-2-[[6-[(4aR,7aR)-3,4,4a,5,7,7a-hexahydro-2H-pyrrolo[3,4-b][1,4]oxazin-6-yl]spiro[1H-furo[3,4-c]pyridine-3,3′-azetidine]-1′-yl]methyl]-6-methyl-morpholin-4-yl]-2-deuterio-quinoline-8-carbonitrile]
3 | 23 | C[C@@H]1CN(c2ccc(C#N)n3nccc23)C[C@H](CN2CC3(C2)OCc2cc(N4CC(C)(N)C4)ncc23)O1 [Example 25, 4-[(2S,6R)-2-[[6-(3-amino-3-methyl-azetidin-1-yl)spiro[1H-furo[3,4-c]pyridine-3,3′-azetidine]-1′-yl]methyl]-6-methyl-morpholin-4-yl]pyrazolo[1,5-a]pyridine-7-carbonitrile]
4 | 15 | [2H]c1ccc2c(N3C[C@H](CN4CC5(C4)OCc4cc(N6C[C@H]7NCCO[C@@H]7C6)ccc45)O[C@H](C)C3)ccc(C#N)c2n1 [Example 17, 5-[(2S,6R)-2-[[6-[(4aR,7aR)-3,4,4a,5,7,7a-hexahydro-2H-pyrrolo[3,4-b][1,4]oxazin-6-yl]spiro[1H-isobenzofuran-3,3′-azetidine]-1′-yl]methyl]-6-methyl-morpholin-4-yl]-2-deuterio-quinoline-8-carbonitrile]
5 | 7 | [2H]c1ccc2c(N3C[C@H](CN4CC5(C4)OCc4cc(N6C[C@@H](N)[C@H](OC)C6)cnc45)O[C@H](C)C3)ccc(C#N)c2n1 [Example 31, 5-[(2S,6R)-2-[[3-[(3R,4R)-3-amino-4-methoxy-pyrrolidin-1-yl]spiro[5H-furo[3,4-b]pyridine-7,3′-azetidine]-1′-yl]methyl]-6-methyl-morpholin-4-yl]-2-deuterio-quinoline-8-carbonitrile]

The next lines start with the molecule.

Row | Structure (SMILES) | IC50 [nM]
6 | C[C@@H]1CN(c2ccc(C#N)n3ncc(F)c23)C[C@H](CN2CC3(C2)OCc2cc(N[C@H]4CNC[C@H]4F)ccc23)O1 [Example 3, 3-fluoro-4-[(2S,6R)-2-[[6-[[(3S,4R)-4-fluoropyrrolidin-3-yl]amino]spiro[1H-isobenzofuran-3,3′-azetidine]-1′-yl]methyl]-6-methyl-morpholin-4-yl]pyrazolo[1,5-a]pyridine-7-carbonitrile] | 20
7 | C[C@@H]1CN(c2ccc(C#N)n3ncc(F)c23)C[C@H](CN2CC3(C2)OCc2cc(N4CC(C)(N)C4)ccc23)O1 [Example 1, 4-[(2S,6R)-2-[[6-(3-amino-3-methyl-azetidin-1-yl)spiro[1H-isobenzofuran-3,3′-azetidine]-1′-yl]methyl]-6-methyl-morpholin-4-yl]-3-fluoro-pyrazolo[1,5-a]pyridine-7-carbonitrile] | 12
8 | [2H]c1ccc2c(N3C[C@H](CN4CC5(C4)OCc4cc(N6C[C@@H](N)[C@H](OC)C6)ccc45)O[C@H](C)C3)ccc(C#N)c2n1 [Example 16, 5-[(2S,6R)-2-[[6-[(3R,4R)-3-amino-4-methoxy-pyrrolidin-1-yl]spiro[1H-isobenzofuran-3,3′-azetidine]-1′-yl]methyl]-6-methyl-morpholin-4-yl]-2-deuterio-quinoline-8-carbonitrile] | 19

From patent US12421252B2, “Spiro (isobenzofuranazetidine) compounds for the treatment of autoimmune disease” (Hoffmann-La Roche Inc., priority 2020, dated 2025)
